According to patent US12636379B2, “Microbubble-chemotherapeutic agent complex for sonodynamic therapy” (UNIVERSITY OF ULSTER, priority 2015, dated 2026):

Assays:
Mia Paca cells = test: In vitro cytotoxicity with 780 nm irradiation; type: cell-based; details: exposed to 780 nm irradiation
[1] = Singlet oxygen production (SOSG intensity) on 780 nm excitation; type: physicochemical; details: excited at 780 nm
Excerpt: Increased SOSG intensity is indicative of singlet oxygen production.

BxPC-3 cells = test: In vitro cytotoxicity with 780 nm irradiation; type: cell-based; details: exposed to 780 nm irradiation
[2] = Fluorescence emission spectra compared with Cardio Green; type: physicochemical
Excerpt: The new compounds clearly show similar absorption profiles to Cardio Green. […] This is attributed to increased ISC due to the additional iodine atoms.

[3] = system: HeLa cervical cancer cell line; test: In vitro cytotoxicity with 780 nm excitation; type: cell-based; details: excited at 780 nm
ectopic BxPC-3 tumours = test: Systemic (IP) gemcitabine therapy of ectopic tumours, tumour volume; type: in vivo, mice; details: 120 mg/kg IP on days 0, 3 and 8
Experimental: FIG. 9 is a plot of % change in tumour volume for mice treated with IP gemcitabine (120 mg/kg on days 0, 3 and 8) (filled squares) or vehicle only (filled diamonds). Error bars represent+the standard error where n=4.
In order to compare the effectiveness of the combined SDT/5-FU therapy against systemic gemcitabine therapy, we treated mice bearing ectopic BxPC-3 tumours with gemcitabine (120 mg/kg) administered by intraperitoneal (IP) injection on days 0, 3 and 8. Tumour volume was measured daily as before and compared to untreated animal controls.

BxPc-3 tumours = test: In vivo cytotoxicity: intratumoural treatment of ectopic xenograft tumours, tumour volume; parameters: species or system mice; details: 9 days after single intratumoural treatment; 440 μM gemcitabine or 5-FU alone; mix (90.8 μM RB, 440 μM 5FU) +US
Excerpt: FIG. 8 is a plot of (a) % change in tumour volume and (b) average body weight for mice treated with (i) no treatment (open diamonds) (ii) ultrasound only (filled diamonds) (iii) gemcitabine (open triangles) (iv) O2MB-RB/O2MB-5FU mix-US (open circles) (v) O2MB-RB+US (filled squares) (vi) O2MB-RB/O2MB-5FU mix+US (filled circles). Not shown for ease of illustration are treatments with 5-FU alone, O2MB-RB-US, O2MB-5FU+US, O2MB-5FU-US. The RB, 5-FU and gemcitabine concentrations were kept constant in each case at 0.184 mg/kg (90.8 μM), 0.115 mg/kg (440 μM) and 0.264 mg/kg (440 μM) respectively. Ultrasound treatment was delivered for 30 sec at frequency of 1 MHz, an ultrasound power density of 3.0 Wcm^−2 and a duty cycle of 50%, pulse frequency=100 Hz. […]
BxPc-3 cells were maintained in RPMI-1640 medium supplemented with 10% foetal calf serum as described above. […] Once the tumours had reached an average volume of 218 mm^3, calculated from the geometric mean diameter using the equation tumour volume=4πR^3/3, animals were randomly distributed into 10 groups (n=4). […] After treatment, animals were allowed to recover from anaesthesia and tumour volume and body weight were recorded daily for nine days. The % increase in tumour volume was calculated employing the pre-treatment measurements for each group.

MIA PaCa-2 cells = test: Combined antimetabolite/sonodynamic therapy with free agents, MTT assay; details: 3 μM RB and/or 50 μM 5FU, 3 h; US 30 sec, 1 MHz; MTT 24 h; n=6
Experimental: The cells were incubated with either 3 μM RB and 50 μM 5FU (or both) for 3 h as these represent sub-lethal doses and enabled synergy to be identified if evident. Ultrasound exposure was 30 sec, 3 W/cm^2, 1 MHz, 50% duty cycle; pulse repetition frequency of […]. Cell viability was determined 24 h following treatment using a MTT assay.
Human primary pancreatic adenocarcinoma cell lines MIA PaCa-2 were maintained in Dulbecco's Modified Eagle's Medium and supplemented with 10% (v/v) foetal bovine serum in a humidified 5% CO2 atmosphere at 37° C. The cells were plated into the wells of a 96-well plate at a concentration of 4×10^3 cells per well and incubated for 21 h at 37° C. in a humidified 5% CO2 atmosphere. The medium was then removed and wells treated with either Rose Bengal, ([…]), 5-Fluorouracil (50 μM) or a combination of both RB (3 μM) and 5-FU (50 μM) for 3 h. The drug solutions were then removed, fresh media added and selected wells treated with ultrasound delivered using a Sonidel SP100 sonoporator (30 sec, frequency=1 MHz, ultrasound power density=3.0 Wcm^−2, duty cycle=50% with pulse repetition frequency=100 Hz). The cells were then incubated for 24 h before cell viability was determined using a MTT assay.

[4] = system: ectopic BxPC-3 pancreatic tumors; test: Tumour localisation after tail vein administration; type: in vivo, mice; details: 18 hours following tail vein administration
Bcl2 = details: MIA PaCa-2 pancreatic cancer xenograft model; cited from earlier work

Row | singlet oxygen production [1] | fluorescence emission in comparison to cardio green [2] | Structure (SMILES) | cytotoxicity compared with cardio green (Mia Paca cells) | cytotoxicity compared with cardio green (BxPC-3 cells) | toxicity compared with Cardio Green [3] | tumour growth over original starting volume (BxPc-3 tumours) [%] | reduction in cell viability with ultrasound relative to the same treatment without ultrasound (MIA PaCa-2 cells) [%] | further results
1 | more singlet oxygen than Cardio Green | considerably quenched | CC1(C)C(/C=C/C2=C(Cl)C(=C/C=C3/N(CCCCS(=O)(=O)O)c4cc(I)cc(I)c4C3(C)C)/CCC2)=[N+](CCCCS(=O)(=O)O)c2cc(I)cc(I)c21 [Compound I4-IRCYDYE, 2-((E)-2-((E)-2-chloro-3-((E)-2-(4,6-diiodo-3,3-dimethyl-1-(4-sulfobutyl)indolin-2-ylidene)ethylidene)cyclohex-1-en-1-yl)vinyl)-4,6-diiodo-3,3-dimethyl-1-(4-sulfobutyl)-3H-indol-1-ium] | significantly more cytotoxic | significantly more cytotoxic | more toxic | – | – | –
2 | – | – | Nc1ccn([C@@H]2O[C@H](CO)[C@@H](O)C2(F)F)c(=O)n1 [gemcitabine] | – | – | – | 125.1 | – | tumour volume relative to starting tumour volume (ectopic BxPC-3 tumours): at no point in the therapy did the tumour volume decrease below the starting tumour volume; tumour volume increase (ectopic BxPC-3 tumours; control group about 100%): 38%; increase in tumour volume at day 6 (ectopic BxPC-3 tumours; day 6): 20%
3 | – | – | O=c1[nH]cc(F)c(=O)[nH]1 [Compound 5-FU, 5-fluorouracil] | – | – | – | 123.3 | 5.9 | –
4 | more singlet oxygen than Cardio Green | remains similar to cardiogreen | CC1(C)C(/C=C/C2=C(Cl)C(=C/C=C3/N(CCCCS(=O)(=O)O)c4ccc(I)cc4C3(C)C)/CCC2)=[N+](CCCCS(=O)(=O)O)c2ccc(I)cc21 [Compound I2-IRCYDYE, 2-((E)-2-((E)-2-chloro-3-((E)-2-(5-iodo-3,3-dimethyl-1-(4-sulfobutyl)indolin-2-ylidene)ethylidene)cyclohex-1-en-1-yl)vinyl)-5-iodo-3,3-dimethyl-1-(4-sulfobutyl)-3H-indol-1-ium] | significantly more cytotoxic | significantly more cytotoxic | more toxic | – | – | tumour localisation [4]: localises in tumor
5 | – | – | O=C1OC2(c3cc(I)c(O)c(I)c3Oc3c2cc(I)c(O)c3I)c2c(Cl)c(Cl)c(Cl)c(Cl)c21 [RB, Rose Bengal] | – | – | – | – | 11.1 | –
6 | – | – | CN1CCN(CCCNc2cc3c4c(c(NCCCN5CCN(C)CC5)cc5c4c2C(=O)N(CCCN2CCOCC2)C5=O)C(=O)N(CCCN2CCOCC2)C3=O)CC1 [MM41] | – | – | – | – | – | reduction of Bcl2 levels at the protein level (Bcl2): 40%
